Data taken from PubChem BioAssay (NCI).
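48-hour exposure; five concentrations; linearly interpolated endpoints. Abbreviation: GI50, concentration required for 50% inhibition of growth. TGI marks complete inhibition of growth.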

Key:
Test in all cases: growth of human tumour cells (NCI), 48 h
786-0 renal = test system: 786-0 renal
SNB-19 CNS = test system: SNB-19 CNS
TK-10 renal = test system: TK-10 renal
K-562 leukemia = test system: K-562 leukemia
RXF 393 renal = test system: RXF 393 renal
T-47D breast = test system: T-47D breast
EKVX NSCLC = test system: EKVX NSCLC
HCC-2998 colon = test system: HCC-2998 colon

Row | SMILES | TGI (786-0 renal) [µM] | TGI (SNB-19 CNS) [µM] | TGI (TK-10 renal) [µM] | TGI (K-562 leukemia) [µM] | TGI (RXF 393 renal) [µM] | TGI (T-47D breast) [µM] | TGI (EKVX NSCLC) [µM] | GI50 (HCC-2998 colon) [µM] | TGI (HCC-2998 colon) [µM] | GI50 (786-0 renal) [µM] | GI50 (SNB-19 CNS) [µM] | GI50 (TK-10 renal) [µM] | GI50 (K-562 leukemia) [µM] | GI50 (RXF 393 renal) [µM] | GI50 (T-47D breast) [µM] | GI50 (EKVX NSCLC) [µM]
1 | COc1ccc2c(c1)N(CCC1CCCCN1C)c1ccccc1S2 (stereo unspecified) | 29.5 | 28.9 | 28.1 | 18.2 | 21.8 | 26.3 | 36.5 |  |  |  |  |  |  |  |  | 
2 | CCOC(=O)c1c2c(n3cccc(F)c13)C(=O)c1ncccc1C2=O | 4.99 | 4.49 | 27.2 | > 100 | 4.1 | 25.2 | 15.8 | 1.29 | 15.4 | 0.114 | 0.0703 | 0.216 | 0.357 | 0.412 | 3.53 | 1.07
3 | CC1=C(C(=O)Nc2ccc(Cl)c(Cl)c2)C(c2cccc(O)c2)NC(=S)N1 (stereo unspecified) | 20 | 30.3 |  | 37.3 | 29.3 |  | 21.4 |  |  | 9.47 | 11.4 |  | 10.8 | 12.8 |  | 9.38
4 | CSc1ccc2c(c1)C(=O)c1c-2n(CCCN=[N+]=[N-])c(=O)c2cc([N+](=O)[O-])ccc12 | 14.6 | > 100 | > 100 | > 40.2 | > 100 | > 100 | > 100 | 1.57 | 66 | 1.65 | 1.18 | > 100 | 1.99 | > 34.4 | 4.58 | > 100
5 | COc1ccc2c(c1)CC[C@@H]1[C@@H]2CC[C@]2(C)c3c(cc(C(=O)c4ccccc4)c4sccc34)C[C@@H]12 | > 100 | > 100 | > 100 | > 100 | > 100 |  | > 100 | > 100 | > 100 | > 100 | > 100 | > 100 | > 100 | > 100 |  | > 100
6 | Cc1ccc(C2CC(c3cccc(Nc4ccncc4)c3)=NN2c2ccc(Cl)cc2)cc1 (stereo unspecified) | 3.16 |  | 3.35 | 4.46 | 2.97 |  | 2.88 | 1.69 | 3.14 | 1.71 |  | 1.78 | 1.84 | 1.59 |  | 1.48
7 | O=C1C=CC(=O)N1CCCCCCCCCCN1C(=O)C=CC1=O | 30.4 | > 100 | 69 | 67.9 | 11.3 | 40.7 | 39.2 | 26 | 71.2 | 16.2 | 37.6 | 22.9 | 7.63 | 3.13 | 15.3 | 19.4
8 | O=C1[C@H](c2ccccc2)C2c3ccccc3CCN12 (stereo partly specified) | > 100 | > 100 | > 100 | > 100 | > 100 | > 100 | > 100 | > 100 | > 100 | > 100 | > 100 | > 100 | > 100 | > 100 | > 100 | > 100
9 | O=C(Nc1cccc2ccccc12)c1cc2ccccc2cc1O | 17.2 | > 100 | 6.72 | 23.4 | 6.68 | 18.7 | 6.18 | 3.5 | 13.3 | 3.43 | 3.17 | 2.8 | 1.95 | 2.71 | 2.8 | 1.77
10 | NS(=O)(=O)c1ccc(NCc2cnc3ccccc3c2)cc1 | > 100 | > 100 | > 100 | > 100 | > 100 | > 100 | > 100 |  | > 100 |  |  |  |  |  |  | 
11 | Cc1cccc2c(=O)c3c(sc12)c(NCCN)nc1ccccc13 | 1.69 | 2.56 | 1.97 | 1.95 | 2.75 | 1.6 | 1.71 | 0.798 | 1.58 | 0.917 | 0.948 | 1.15 | 0.827 | 1.03 | 0.685 | 0.815
12 | Cc1ccc(S(=O)(=O)N2C/C(=C\c3cc(F)cc(F)c3)C(=O)/C(=C/c3cc(F)cc(F)c3)C2)cc1 | 1.66 | 1.1 | 2.99 | 1.24 | 1.82 | 6.59 |  | 0.632 | 1.97 | 0.492 | 0.29 | 0.994 | 0.0605 | 0.535 | 1.77 | 
13 | O=C(O)C#Cc1ccc([N+](=O)[O-])cc1 | > 100 | > 100 | > 100 | > 100 | > 100 | > 100 | > 100 |  | > 100 |  |  |  |  |  |  | 
14 | CCCNNC(=O)c1ccc(CNC(=O)/C=C/c2ccccc2)cc1 | > 100 | > 100 | 0.577 | > 100 | 0.501 | 0.715 | > 100 | 0.186 | 0.653 | 0.314 | 0.314 | 0.0343 | 0.0732 | 0.18 | 0.13 | 0.311
15 | CCC1=C[C@H]2CN(CCc3c([nH]c4ccccc34)[C@@](C(=O)OC)(c3cc4c(cc3OC)N(C)[C@H]3[C@@](O)(C(=O)OC)[C@H](OC(C)=O)[C@]5(CC)[C@@H]6C[C@@H]6CN6CC[C@]43[C@@H]65)C2)C1 | 3.07 | 23.4 | 8.13 |  |  |  | > 25 | 0.084 | 3.07 | 0.0315 | 0.0825 | 3.33 |  |  |  | 0.0966
16 | N=C(N)c1ccc(-c2ccc(-c3ccco3)o2)cc1F | 4.08 | 13.4 | 3.24 | 3.82 | 3.69 | 5.54 |  | 1.94 | 3.8 | 1.74 | 2.48 | 1.69 | 1.58 | 1.62 | 2.05 | 
17 | CCOCC[P+](c1ccccc1)(c1ccccc1)c1ccccc1 | > 100 | > 100 |  | > 100 |  | > 100 |  |  |  | 31.3 | 21.3 |  | 14.9 |  | 4.21 | 

Row | SMILES | TGI (786-0 renal) [µM] | TGI (SNB-19 CNS) [µM] | TGI (TK-10 renal) [µM] | TGI (K-562 leukemia) [µM] | TGI (RXF 393 renal) [µM] | TGI (T-47D breast) [µM] | TGI (EKVX NSCLC) [µM] | GI50 (HCC-2998 colon) [µM] | TGI (HCC-2998 colon) [µM] | GI50 (786-0 renal) [µM] | GI50 (SNB-19 CNS) [µM] | GI50 (TK-10 renal) [µM] | GI50 (K-562 leukemia) [µM] | GI50 (RXF 393 renal) [µM] | GI50 (T-47D breast) [µM] | GI50 (EKVX NSCLC) [µM]
18 | Cc1cc(Cl)ccc1Nc1nc(C(F)(F)F)ccc1C(=O)N/N=C/c1c(Cl)cccc1Cl | 1.08 | > 56.6 | 1.79 |  | > 100 | 1.98 | 2.97 | 0.459 | > 100 | 0.292 | 0.683 | 0.316 | 0.253 | 2.04 | 0.331 | 0.211
19 | COc1ccc(C2SC(C)C(=O)N2NC(=O)C(O)c2ccccc2)cc1 (stereo unspecified) | > 100 | > 100 | > 100 | > 100 | > 100 | > 100 | > 100 | > 100 | > 100 | > 100 | > 100 | > 100 | > 100 | > 100 | > 100 | > 100
20 | COc1ccc(/C=C/C(=O)c2ccc(NC(=O)CSc3nnc(-c4cc(OC)c(OC)c(OC)c4)o3)cc2)cc1 | 3.36 | 3.56 | 3.03 |  | 3.54 | 5.08 |  | 1.88 | 3.65 | 1.7 | 1.78 | 1.52 |  | 1.74 | 2.05 | 
21 | CNC(=S)N/N=C(/C)CCC/C(C)=N/NC(=S)NC | > 100 | > 100 | > 100 | > 100 | > 50.3 | > 100 | > 100 |  |  |  |  |  |  |  |  | 
22 | O=C(CN/C=C\C(=O)c1cc(Cl)ccc1Cl)c1ccccc1 | > 100 | > 100 | 73.7 | > 100 | 67.5 | > 100 | 99.2 | 19.3 | 47.2 | 36.1 | 47.4 | 26 | 61.2 | 22.9 | 33.4 | 31.1
23 | O=C(O)c1cn(C2CC2)c2cc(N3CCN(C(=O)Nc4nc(-c5ccc(Cl)cc5)cs4)CC3)c(F)cc2c1=O | 22.5 | > 100 | > 100 | > 100 | 54.6 | > 100 | > 100 | 4.09 | > 100 | 2.32 | 2.74 | 4.11 | 2.24 | 3.37 | 1.65 | 2.97
24 | NNc1nc(-c2ccccn2)nc2sc3c(c12)CCCCCC3 | 25.2 |  | > 100 | > 100 | 43 | > 100 |  | 8.31 | > 100 | 5.65 |  | 9.16 | 3.78 | 6.8 | 5.01 | 
25 | O=C(/C=C/c1ccc2c(c1)OCO2)c1ccccc(=O)c1O | > 100 | 51.8 | 43.5 | > 100 |  | 64.6 | > 100 |  |  |  |  |  |  |  |  | 
26 | CCOC(=O)C1=C(N)Oc2cc(OC)ccc2C1c1ccc(F)c(F)c1 (stereo unspecified) | 16.8 | 17.4 | 21.8 |  | 8.76 | 20 | 17.9 | 4.14 | 18.4 | 3.45 | 1.83 | 9.5 |  | 1.55 | 1.72 | 3.67
27 | COc1ccc(/C=C2\CCCC3=C2N=C2SC=NN2C3c2ccc(OC)c(OC)c2)cc1OC (stereo unspecified) | > 100 | > 100 | 76.2 | > 100 | 24.3 | > 100 |  | > 100 | > 100 | 25.3 | 32.9 | 21 | 6.09 | 4.91 | 5.21 | 
28 | COc1ccc(-c2oncc2-c2cc(OC)c3c(c2)OCO3)cc1 | > 100 | > 100 | > 100 | > 100 | 20.3 | > 100 |  | 6.36 | > 100 | 7.67 | 5.25 | 7.3 | 0.441 | 2.9 | 4.29 | 
29 | CC(=O)/C=C/c1ccc(N(C)Cc2ccc(C(C)(C)C)cc2)cc1 | 338 | 699 | 890 |  | 272 | 405 | 392 | 149 | 340 | 155 | 218 | 348 |  | 131 | 47.8 | 84.4
30 | O=C(Nc1ncc(Cc2ccc(Cl)cc2)s1)c1ccc2c(c1)OCCO2 | > 100 | > 92.4 | > 32.5 | > 100 | 0.567 |  | > 100 | 0.223 | 20.3 | 0.0728 | 0.08 | 0.245 | 0.0453 | 0.0326 |  | 0.412
31 | C[C@H]1[C@H](C)CC[C@]2(C(=O)O)CC[C@]3(C)C(=CC[C@@H]4[C@@]5(C)CC[C@H](OC(=O)/C=C\c6ccc(O)cc6)C(C)(C)[C@@H]5CC[C@]43C)[C@H]12 | 16 | 31.1 | 4.66 |  | 6.94 |  | 13.7 | 2.92 | 14.1 | 3.22 | 10.5 | 1.15 |  | 1.52 |  | 3.11
32 | O=C(Nc1cccc(-n2cc(-c3ccncc3)c(-c3ccc(O)c(Cl)c3)n2)c1)Nc1ccc(Cl)c(C(F)(F)F)c1 | 8.18 | > 100 | 7.16 | 9.79 | 3.74 | 6.83 |  | 2.81 | 6.98 | 2.08 | 3.63 | 2.96 | 2.44 | 1.19 | 2.07 | 
33 | Cn1cc(C2=C(c3cccc(NCC(O)CO)c3)C(=O)NC2=O)c2cc(Cl)ccc21 (stereo unspecified) | 16.5 | 19.6 | 16.8 | > 25 | 7.18 | 15 |  | 6.56 | 17.9 | 4.31 | 7.28 | 5.67 | 2.19 | 2.82 | 4.29 | 
34 | Cc1cc(Cl)ccc1Nc1nc(C(F)(F)F)ccc1C(=O)N/N=C/c1ccc(F)cc1 | 5.93 | 12 | 7.6 | 6.05 |  | 7.13 | 8.17 | 1.1 | 4.54 | 1.45 | 2.11 | 1.7 | 1.89 |  | 1.6 | 1.13
